Target: rat MCH-1 (Rattus norvegicus, UniProt P97639)
Assay: Radioligand binding assay at cloned rat MCH1 receptor ([3H] Compound A)
Design: host or cells: Peak rapid 293 (Peakr293) cells, transient calcium phosphate transfection, membranes
Conditions: cloned rat MCH1 receptor; 0.08 nM [3H] Compound A; Peakr293 cell membranes; read-out: Ki (nM) rMCH1

Sequence of rat MCH-1 (P97639 whole entry): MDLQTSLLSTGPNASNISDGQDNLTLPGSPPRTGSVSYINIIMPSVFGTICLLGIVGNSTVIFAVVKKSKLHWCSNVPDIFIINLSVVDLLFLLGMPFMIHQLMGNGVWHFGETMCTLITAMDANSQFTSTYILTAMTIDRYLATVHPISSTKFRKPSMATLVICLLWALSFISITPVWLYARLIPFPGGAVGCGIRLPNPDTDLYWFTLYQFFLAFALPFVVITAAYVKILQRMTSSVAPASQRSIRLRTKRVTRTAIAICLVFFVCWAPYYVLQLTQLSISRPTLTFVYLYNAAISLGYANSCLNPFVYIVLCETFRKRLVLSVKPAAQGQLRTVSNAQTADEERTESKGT

Compound	Ki
CC(C)C(=O)Nc1cccc(C2CCN(CCNC(=O)c3coc(Oc4cc(Cl)cc(Cl)c4)c3)CC2)c1 [Example 648]	13.4 nM
CC(C)C(=O)Nc1cccc(C2CCN(CCNC(=O)C(c3ccccc3)c3ccccc3)CC2)c1 [Example 649]	1.7 nM
Cc1onc(-c2c(Cl)cccc2Cl)c1C(=O)NCCCCN1CCC(c2cccc(NC(=O)C(C)C)c2)CC1 [Example 651]	16.7 nM
CC(C)C(=O)Nc1cccc(C2CCN(CCCCNC(=O)C(c3ccccc3)c3ccccc3)CC2)c1 [Example 653]	48.8 nM
CC(C)C(=O)Nc1cccc(C2CCN(CCCCCNC(=O)C(c3ccccc3)c3ccccc3)CC2)c1 [Example 654]	43.6 nM
CC(C)C(=O)Nc1cccc(C2CCN(CCCCNC(=O)c3cccc(Cl)c3)CC2)c1 [Example 657]	77.9 nM
CC(C)C(=O)Nc1cccc(C2CCN(CCCCNC(=O)c3ccc(F)c(F)c3)CC2)c1 [Example 658]	12 nM
CC(C)C(=O)Nc1cccc(C2CCN(CCCCNC(=O)Nc3cc(Cl)cc(Cl)c3)CC2)c1 [Example 659]	40.2 nM
CC(C)C(=O)Nc1cccc(C2CCN(CCCCC(=O)c3ccc([N+](=O)[O-])cc3)CC2)c1 [Example 661]	33.3 nM
CC(C)C(=O)Nc1cccc(C2CCN(CCCCC(=O)c3ccc(F)cc3)CC2)c1 [Example 662]	50.3 nM
CC(C)C(=O)Nc1cccc(C2CCN(CCCCC(=O)c3ccccc3C(F)(F)F)CC2)c1 [Example 663]	73.4 nM
CC(C)C(=O)Nc1cccc(C2CCN(CCCCC(=O)c3cccc(Br)c3)CC2)c1 [Example 664]	21.9 nM
CC(C)C(=O)Nc1cccc(C2CCN(CCCCC(=O)c3cccc(Cl)c3)CC2)c1 [Example 666]	21.9 nM
CC(C)C(=O)Nc1cccc(C2CCN(CCCCC(=O)c3ccccc3I)CC2)c1 [Example 668]	25.8 nM
CC(C)C(=O)Nc1cccc(C2CCN(CCCCC(=O)c3cccc(I)c3)CC2)c1 [Example 672]	19.7 nM
CC(C)C(=O)Nc1cccc(C2CCN(CCCCC(=O)c3ccc(Cl)cc3)CC2)c1 [Example 675]	32.6 nM
CC(C)C(=O)Nc1cccc(C2CCN(CCCCNC(=O)c3cccnc3Oc3ccc(Cl)cc3)CC2)c1 [Example 678]	14.7 nM
Cc1onc(-c2ccccc2Cl)c1C(=O)NCCCCN1CCC(c2cccc(NC(=O)C(C)C)c2)CC1 [Example 680]	28.1 nM
Cc1onc(-c2ccccc2Cl)c1C(=O)NCCCCCN1CCC(c2cccc(NC(=O)C(C)C)c2)CC1 [Example 681]	23.9 nM
CC(C)C(=O)Nc1cccc(C2CCN(CCCc3c(-c4ccc(C(F)(F)F)cc4)[nH]c4ccccc34)CC2)c1 [Example 684]	5.4 nM
CC(C)C(=O)Nc1cccc(C2CCN(CCCc3c(-c4ccc(C(F)(F)F)cc4)n(-c4ccccc4)c4ccccc34)CC2)c1 [Example 685]	82.4 nM
CC(C)C(=O)Nc1cccc(C2CCN(CCCc3c(-c4ccc(C(F)(F)F)cc4)[nH]c4c3ccc3ccccc34)CC2)c1 [Example 686, 2-METHYL-N-{3-[1-(3-(2-[4-(TRIFLUOROMETHYL)PHENYL]-1H-BENZO [G]INDOL-3-YL}PROPYL)-4-PIPERIDINYL]PHENYL}PROPANAMIDE]	33.9 nM
Cc1ccc2[nH]c(-c3ccc(C(F)(F)F)cc3)c(CCCN3CCC(c4cccc(NC(=O)C(C)C)c4)CC3)c2c1 [Example 688]	41 nM
Cc1cccc2c(CCCN3CCC(c4cccc(NC(=O)C(C)C)c4)CC3)c(-c3cccc(F)c3)[nH]c12 [Example 690]	5.2 nM
CC(C)C(=O)Nc1cccc(C2CCN(CCCc3c(-c4ccc(Cl)cc4)n(C)c4ccccc34)CC2)c1 [Example 691]	16.3 nM
CC(C)C(=O)Nc1cccc(C2CCN(CCCc3c(-c4ccc(F)cc4)n(-c4ccccc4)c4ccccc34)CC2)c1 [Example 696]	48.3 nM
CC(C)C(=O)Nc1cccc(C2CCN(CCCc3c(-c4ccc(Cl)cc4)[nH]c4ccc(OC(F)(F)F)cc34)CC2)c1 [Example 703]	16.6 nM
CC(C)C(=O)Nc1cccc(C2CCN(CCCc3c(-c4cccc(F)c4)n(C)c4ccccc34)CC2)c1 [Example 705]	8.5 nM
Cc1cccc2c(CCCN3CCC(c4cccc(NC(=O)C(C)C)c4)CC3)c(-c3ccccc3F)[nH]c12 [Example 710]	6.9 nM
CC(C)C(=O)Nc1cccc(C2CCN(CCCc3c(-c4ccccc4F)n(-c4ccccc4)c4ccccc34)CC2)c1 [Example 711]	90.5 nM

The next lines start with the values.

Ki	Compound
85.3 nM	CC(C)C(=O)Nc1cccc(C2CCN(CCCNS(=O)(=O)c3ccc(C(C)(C)C)cc3)CC2)c1 [Example 645]
236 nM	CC(C)C(=O)Nc1cccc(C2CCN(CCCCCCN)CC2)c1 [Example 646]
81.6 nM	CC(C)C(=O)Nc1cccc(C2CCN(CCNC(=O)Nc3ccc(-c4ccccc4)cc3)CC2)c1 [Example 647]
21.1 nM	CC(C)C(=O)Nc1cccc(C2CCN(CCNC(=O)c3ccc4ccccc4c3)CC2)c1 [Example 650]
31.1 nM	CC(C)C(=O)Nc1cccc(C2CCN(CCCCNC(=O)c3cc(Cl)cc(Cl)c3)CC2)c1 [Example 655]
49.7 nM	CC(C)C(=O)Nc1cccc(C2CCN(CCCCNC(=O)c3ccc(Oc4cc(Cl)cc(Cl)c4)o3)CC2)c1 [Example 656]
129 nM	CC(C)C(=O)Nc1cccc(C2CCN(CCCCNC(=O)Nc3ccc(-c4ccccc4)cc3)CC2)c1 [Example 660]
43.9 nM	CC(C)C(=O)Nc1cccc(C2CCN(CCCCC(=O)c3ccc(Br)cc3)CC2)c1 [Example 667]
42.2 nM	CC(C)C(=O)Nc1cccc(C2CCN(CCCCC(=O)c3cccc(F)c3)CC2)c1 [Example 669]
57.6 nM	CC(C)C(=O)Nc1cccc(C2CCN(CCCCC(=O)c3cccc(C(F)(F)F)c3)CC2)c1 [Example 670]
88.6 nM	CC(C)C(=O)Nc1cccc(C2CCN(CCCCC(=O)c3ccccc3F)CC2)c1 [Example 671]
32.5 nM	CC(C)C(=O)Nc1cccc(C2CCN(CCCCC(=O)c3ccccc3Cl)CC2)c1 [Example 673]
39.6 nM	CC(C)C(=O)Nc1cccc(C2CCN(CCCCC(=O)c3ccc(C(F)(F)F)cc3)CC2)c1 [Example 674]
21.9 nM	CC(C)C(=O)Nc1cccc(C2CCN(CCCCC(=O)c3ccc(I)cc3)CC2)c1 [Example 676]
52.3 nM	CC(C)C(=O)Nc1cccc(C2CCN(CCCCC(=O)c3ccccc3Br)CC2)c1 [Example 677]
97.9 nM	COc1ccc(C(=O)NCCCCN2CCC(c3cccc(NC(=O)C(C)C)c3)CC2)cc1OC [Example 679]
7.1 nM	CC(C)C(=O)Nc1cccc(C2CCN(CCCc3c(-c4ccc(C(F)(F)F)cc4)n(C)c4ccccc34)CC2)c1 [Example 682]
54.2 nM	CC(C)C(=O)Nc1cccc(C2CCN(CCCc3c(-c4ccc(C(F)(F)F)cc4)[nH]c4ccc(OC(F)(F)F)cc34)CC2)c1 [Example 683]
20.6 nM	Cc1cccc2c(CCCN3CCC(c4cccc(NC(=O)C(C)C)c4)CC3)c(-c3ccc(C(F)(F)F)cc3)[nH]c12 [Example 687]
11.3 nM	COc1ccc2[nH]c(-c3ccc(C(F)(F)F)cc3)c(CCCN3CCC(c4cccc(NC(=O)C(C)C)c4)CC3)c2c1 [Example 689]
2 nM	COc1ccc2[nH]c(-c3ccc(F)cc3)c(CCCN3CCC(c4cccc(NC(=O)C(C)C)c4)CC3)c2c1 [Example 692]

Ki	Compound
0.4 nM	CC(C)C(=O)Nc1cccc(C2CCN(CCCc3c(-c4ccccc4F)[nH]c4ccccc34)CC2)c1 [Example 693]
6.4 nM	CC(C)C(=O)Nc1cccc(C2CCN(CCCc3c(-c4cccc(F)c4)[nH]c4ccc(OC(F)(F)F)cc34)CC2)c1 [Example 694]
2.1 nM	CC(C)C(=O)Nc1cccc(C2CCN(CCCc3c(-c4ccccc4F)[nH]c4ccc(OC(F)(F)F)cc34)CC2)c1 [Example 695]
3 nM	CC(C)C(=O)Nc1cccc(C2CCN(CCCc3c(-c4ccccc4F)[nH]c4c3ccc3ccccc34)CC2)c1 [Example 697]
3 nM	Cc1ccc2[nH]c(-c3ccccc3F)c(CCCN3CCC(c4cccc(NC(=O)C(C)C)c4)CC3)c2c1 [Example 698]
5.4 nM	CC(C)C(=O)Nc1cccc(C2CCN(CCCc3c(-c4cccc(F)c4)[nH]c4c3ccc3ccccc34)CC2)c1 [Example 699]
2 nM	CC(C)C(=O)Nc1cccc(C2CCN(CCCc3c(-c4ccc(F)cc4)n(C)c4ccccc34)CC2)c1 [Example 700]
2.5 nM	COc1ccc2[nH]c(-c3cccc(F)c3)c(CCCN3CCC(c4cccc(NC(=O)C(C)C)c4)CC3)c2c1 [Example 701]
27 nM	CC(C)C(=O)Nc1cccc(C2CCN(CCCc3c(-c4cccc(F)c4)n(-c4ccccc4)c4ccccc34)CC2)c1 [Example 702]
1.2 nM	CC(C)C(=O)Nc1cccc(C2CCN(CCCc3c(-c4cccc(F)c4)[nH]c4ccccc34)CC2)c1 [Example 704]
4.2 nM	Cc1ccc2[nH]c(-c3cccc(F)c3)c(CCCN3CCC(c4cccc(NC(=O)C(C)C)c4)CC3)c2c1 [Example 706]
19.6 nM	CC(C)C(=O)Nc1cccc(C2CCN(CCCc3c(-c4ccc(Cl)cc4)[nH]c4c3ccc3ccccc34)CC2)c1 [Example 707]
3.8 nM	CC(C)C(=O)Nc1cccc(C2CCN(CCCc3c(-c4ccc(Cl)cc4)[nH]c4ccccc34)CC2)c1 [Example 708]
1.3 nM	CC(C)C(=O)Nc1cccc(C2CCN(CCCc3c(-c4ccccc4F)n(C)c4ccccc34)CC2)c1 [Example 709]
8.6 nM	COc1ccc2[nH]c(-c3ccccc3F)c(CCCN3CCC(c4cccc(NC(=O)C(C)C)c4)CC3)c2c1 [Example 712]
7.7 nM	COc1ccc2[nH]c(-c3ccc(Cl)cc3)c(CCCN3CCC(c4cccc(NC(=O)C(C)C)c4)CC3)c2c1 [Example 713]
4.7 nM	CC(C)C(=O)Nc1cccc(C2CCN(CCCc3c(-c4ccc(F)cc4)[nH]c4c3ccc3ccccc34)CC2)c1 [Example 714]
4.2 nM	CC(C)C(=O)Nc1cccc(C2CCN(CCCc3c(-c4ccc(F)cc4)[nH]c4ccc(OC(F)(F)F)cc34)CC2)c1 [Example 715]
4.5 nM	Cc1cccc2c(CCCN3CCC(c4cccc(NC(=O)C(C)C)c4)CC3)c(-c3ccc(F)cc3)[nH]c12 [Example 716]
1.3 nM	CC(C)C(=O)Nc1cccc(C2CCN(CCCc3c(-c4ccc(F)cc4)[nH]c4ccccc34)CC2)c1 [Example 717]

— patent publication US6727264B1 (Synaptic Pharmaceutical Corporation, priority 2001, dated 2004)
